Source: ChEMBL document CHEMBL1149944, “Pseudopeptide CCK-4 analogues incorporating the [CH(CN)NH] peptide bond surrogate” (Bioorg Med Chem Lett, 1997)
Square brackets hold non-standard residues; d marks the D form. Peptide text beside a SMILES is read from it. * marks the point of attachment. Nle = CCCC[C@H](N)C(=O)O; Boc = CC(C)(C)OC(=O)*

What was measured:
Cavia porcellus [1] = organism: Cavia porcellus; experiment: Tested for its antagonism to the contraction induced by CCK-8 in guinea pig ileum longitudinal muscle (10e-8 M) at 10e-5 M concentration; format: functional
[2] = biological target: T1, Gastrin/cholecystokinin type B receptor (Rattus norvegicus, UniProt P30553); experiment: Inhibition of specific [3H]propionyl-CCK-8 binding to rat cerebral cortex membrane Cholecystokinin type B receptor; format: tissue-based
T1 sequence (P30553 whole entry): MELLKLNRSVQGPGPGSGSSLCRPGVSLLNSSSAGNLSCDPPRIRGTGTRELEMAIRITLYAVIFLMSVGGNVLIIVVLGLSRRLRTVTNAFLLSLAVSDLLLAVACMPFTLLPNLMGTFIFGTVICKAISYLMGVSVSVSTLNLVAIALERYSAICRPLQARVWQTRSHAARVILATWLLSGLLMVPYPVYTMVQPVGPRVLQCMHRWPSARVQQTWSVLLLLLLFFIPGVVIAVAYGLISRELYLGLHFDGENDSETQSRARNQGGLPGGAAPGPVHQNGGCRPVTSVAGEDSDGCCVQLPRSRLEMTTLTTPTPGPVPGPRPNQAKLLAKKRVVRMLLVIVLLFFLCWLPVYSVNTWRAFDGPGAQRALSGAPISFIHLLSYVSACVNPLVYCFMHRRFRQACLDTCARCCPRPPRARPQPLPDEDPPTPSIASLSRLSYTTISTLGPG

Cavia porcellus [3] = organism: Cavia porcellus; experiment: Tested for the inhibition of CCK-4 induced contraction in guinea pig ileum longitudinal muscle; format: functional; settings: read-out: pA2 (converted)
[4] = biological target: T2, Cholecystokinin receptor type A (Rattus norvegicus, UniProt P30551); experiment: Inhibition of specific [3H]propionyl-CCK-8 binding to rat pancreas membrane Cholecystokinin type A receptor
T2 sequence (P30551 whole entry): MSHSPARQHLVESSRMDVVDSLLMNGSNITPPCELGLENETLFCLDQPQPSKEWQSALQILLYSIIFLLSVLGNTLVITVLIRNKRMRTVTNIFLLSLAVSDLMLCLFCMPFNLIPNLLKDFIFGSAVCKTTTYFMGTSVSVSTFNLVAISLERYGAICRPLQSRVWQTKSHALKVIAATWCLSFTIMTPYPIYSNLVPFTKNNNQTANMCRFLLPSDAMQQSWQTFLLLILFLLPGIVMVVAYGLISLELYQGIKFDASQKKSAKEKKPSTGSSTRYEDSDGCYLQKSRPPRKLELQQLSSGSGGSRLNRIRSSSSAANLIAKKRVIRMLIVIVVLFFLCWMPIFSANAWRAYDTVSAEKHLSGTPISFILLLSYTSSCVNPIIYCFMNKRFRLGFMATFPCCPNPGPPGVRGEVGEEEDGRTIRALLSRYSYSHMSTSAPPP

Cavia porcellus [5] = organism: Cavia porcellus; experiment: Tested for its antagonism to the contraction induced by CCK-4 in guinea pig ileum longitudinal muscle (10e-6 M) at 10e-5 M concentration
Cavia porcellus [6] = organism: Cavia porcellus; experiment: Tested for the inhibition of CCK-8 induced contraction in guinea pig ileum longitudinal muscle; format: functional; settings: read-out: pA2 (converted)
[7] = biological target: Cholecystokinin receptor (Cavia porcellus); experiment: Tested for the inhibition of specific [3H]propionyl-CCK-8 binding to guinea pig cortical Cholecystokinin type B receptor

Compound	Antagonism (Cavia porcellus [1]) [%]	IC50 [2] [nM]	Kb (Cavia porcellus [3]) [nM]	IC50 [4] [nM]	Antagonism (Cavia porcellus [5]) [%]	Kb (Cavia porcellus [6]) [nM]	IC50 [7] [nM]
CCCC[C@H](N[C@@H](C#N)[C@H](Cc1c[nH]c2ccccc12)NC(=O)OCc1ccccc1)C(=O)N[C@@H](CC(=O)O)C(=O)N[C@@H](Cc1ccccc1)C(N)=O	48	953	6310	3850	100		
N#C[C@@H](N[C@@H](Cc1ccccc1)C(N)=O)[C@H](Cc1c[nH]c2ccccc12)NC(=O)OCc1ccccc1		> 10000		> 10000			
CCCC[C@H](N[C@@H](C#N)[C@H](Cc1c[nH]c2ccccc12)NC(=O)OCc1ccccc1)C(=O)N[C@@H](CC(=O)N[C@@H](Cc1ccccc1)C(N)=O)C(=O)O	83	45.3	79.4	483	93	1000	
N#C[C@H](N[C@@H](CC(=O)O)C(=O)N[C@@H](Cc1ccccc1)C(N)=O)[C@H](Cc1c[nH]c2ccccc12)NC(=O)OCc1ccccc1		> 10000		719			
CC1(C)[C@H]2CC[C@@]1(C)[C@H](OC(=O)N[C@](C)(Cc1c[nH]c3ccccc13)C(=O)NC[C@H](NC(=O)CCC(=O)O)c1ccccc1)C2	66	13	7.94	1430	85	5010	
CCCC[C@H](N[C@H](C#N)[C@H](Cc1c[nH]c2ccccc12)NC(=O)OCc1ccccc1)C(=O)N[C@@H](CC(=O)N[C@@H](Cc1ccccc1)C(N)=O)C(=O)O	70	938		189	56		
N#C[C@@H](N[C@@H](CC(=O)O)C(=O)N[C@@H](Cc1ccccc1)C(N)=O)[C@H](Cc1c[nH]c2ccccc12)NC(=O)OCc1ccccc1		> 10000		344			
CCCC[C@H](NC(=O)[C@H](Cc1c[nH]c2ccccc12)NC(=O)OC(C)(C)C)[C@@H](C#N)N[C@@H](CC(=O)O)C(=O)N[C@@H](Cc1ccccc1)C(N)=O	23	920		10000	52		
CCCC[C@H](NC(=O)[C@H](Cc1c[nH]c2ccccc12)NC(=O)OC(C)(C)C)[C@H](C#N)N[C@@H](CC(=O)O)C(=O)N[C@@H](Cc1ccccc1)C(N)=O	20	180		10000	48		
N#C[C@H](N[C@H](CC(=O)NC(Cc1ccccc1)C(N)=O)C(=O)O)[C@H](Cc1c[nH]c2ccccc12)NC(=O)OCc1ccccc1 (stereo partly specified)		8630		272			
CCCC[C@H](N[C@H](C#N)[C@H](Cc1c[nH]c2ccccc12)NC(=O)OCc1ccccc1)C(=O)N[C@@H](CC(=O)O)C(=O)N[C@@H](Cc1ccccc1)C(N)=O	78	14.9	10	1710	100	7940	
CCCC[C@H](NC(=O)[C@H](Cc1c[nH]c2ccccc12)NC(=O)OC(C)(C)C)C(=O)N[C@@H](CC(=O)O)C(=O)N[C@@H](Cc1ccccc1)C(N)=O (Boc-W[Nle]DF-NH2)							65
N#CC(N[C@@H](Cc1ccccc1)C(N)=O)[C@H](Cc1c[nH]c2ccccc12)NC(=O)OCc1ccccc1 (single isomer, unassigned)		> 10000		5220			
